Experimental data: patent US20260200921A1, “SUBSTITUTED AMINOPYRIDINE COMPOUNDS AS AKT INHIBITORS” (Atavistik Bio, Inc., priority 2023, published 2026)

How the values were obtained:
[1] = molecular target: T1, AKT1 E17K (Homo sapiens, UniProt P31749, E17K); experiment: AKT1 E17K kinase assay (TR-FRET, Lance); assay type: biochemical; details: full-length human recombinant AKT1 E17K activated by PDPK1; Ulight-CREBtide substrate; either 50 μM ATP or 2 mM ATP
T1 construct: Purified human recombinant kinase full-length AKT1 E17K was expressed in insect cells; made in house; host or cells: insect cells
T1 sequence (P31749 whole entry E17K): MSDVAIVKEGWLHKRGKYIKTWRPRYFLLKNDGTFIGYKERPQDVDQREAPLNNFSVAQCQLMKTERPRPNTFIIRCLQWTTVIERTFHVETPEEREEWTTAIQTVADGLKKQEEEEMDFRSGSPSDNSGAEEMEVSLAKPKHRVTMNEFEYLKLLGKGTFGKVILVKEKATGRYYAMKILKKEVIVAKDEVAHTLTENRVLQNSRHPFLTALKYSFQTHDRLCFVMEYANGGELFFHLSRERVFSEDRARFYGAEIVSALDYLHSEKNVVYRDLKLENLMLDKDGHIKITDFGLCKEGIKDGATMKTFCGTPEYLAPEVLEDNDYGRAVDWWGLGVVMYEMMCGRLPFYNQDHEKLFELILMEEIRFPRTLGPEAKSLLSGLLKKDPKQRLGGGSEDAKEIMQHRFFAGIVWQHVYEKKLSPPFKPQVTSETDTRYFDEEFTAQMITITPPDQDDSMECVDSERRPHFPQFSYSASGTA
Description: AKT1 E17K kinase assay: Inhibitory effects of compounds on AKT1 E17K were undertaken in a 10-pt dose response kinase activity assay measuring phospho-peptide product formation based on TR-FRET signal as described in the following paragraph.
(§1) Purified human recombinant kinase full-length AKT1 E17K was expressed in insect cells and activated in vitro by PDPK1. Ulight™-CREBtide (PerkinElmer, catalog number TRF0107) was used as the peptide substrate. The reaction buffer consisted of 50 mM HEPES pH 7.5, 10 mM MgCl2, 0.01% Triton X-100, 0.01% BSA, 2 mM DTT, 0.6 nM AKT1 E17K, 50 nM Ulight™-CREBtide and either 50 μM ATP or 2 mM ATP. The compound solution was prepared as 10 mM DMSO stock. For the assay, a 1:3 serial dilution 10-pt dose response of test compounds, in duplicate, for each concentration were dispensed into a 384-well plate (Corning, catalog number 4513). Final DMSO concentration in the assay was 1%. The enzyme mixture (5 μL, 1.2 nM) were added and the mixture was incubated for 15 min at RT prior to the start of the kinase reaction by the addition of 5 μL substrate mixture (100 nM Ulight™-CREBtide). The reaction was stopped after 60 min of incubation at RT by the addition of 10 μL of Detection Mix (PerkinElmer, #CR97-100) consisting of Europium-anti-phospho-CREB (Ser133) (Perkin Elmer, catalog numberTRF0200). Incubation with the detection mix for a further 60 min allowed binding of antibody to the phospho-Ulight™ CREBtide. The fluorescence emissions at 620 nm and 665 nm after excitation at 350 nm was measured using Envision reader. The ratio of the emissions at 665 nm and at 620 nm provided the measure for the amount of phosphorylated CREBtide product of AKT1 E17K kinase activity. To determine the IC50 values, the data was normalized (enzyme reaction without inhibitor=0% inhibition, all other assay components but no enzyme=100% inhibition) and IC50 values were calculated by a 4-parameter fit using an in-house developed protocol.

[2] = molecular target: T2, wildtype AKT1 (Homo sapiens, UniProt P31749); experiment: AKT1 kinase assay, wildtype (TR-FRET, Lance); assay type: biochemical; details: full-length human recombinant wildtype AKT1 activated by PDPK1; Ulight-CREBtide substrate; either 50 μM ATP or 2 mM ATP
T2 construct: Purified human recombinant kinase full-length wildtype AKT1 was expressed in insect cells; made in house; host or cells: insect cells
T2 sequence (P31749 whole entry): as the sequence (P31749 whole entry E17K) above, with K17E counted along it
Description: AKT1 kinase assay: Inhibitory effects of compounds on wildtype AKT1 were undertaken in a 10-pt dose response kinase activity assay measuring phospho-peptide product formation based on TR-FRET signal as described in the following paragraph.
as §1, with “full-length wildtype” for “full-length”, “AKT1” for “AKT1 E17K”, “nM AKT1,” for “nM AKT1 E17K,”, “Mix (PerkinElmer.” for “Mix (PerkinElmer,”

**Q.** What does the source list for Cc1cc(O)n(-c2ccc(C(=O)NCc3ccc(-n4c(-c5cccnc5N)nc5ccc(-c6ccccc6)nc54)cc3)cc2)n1 [Compound I-1, N-(4-(2-(2-aminopyridin-3-yl)-5-phenyl-3H-imidazo[4,5-b]pyridin-3-yl)benzyl)-4-(3-methyl-5-oxo-4,5-dihydro-1H-pyrazol-1-yl)benzamide]?
**A.** IC50 [1]: 0.05 to 0.2 µM; IC50 [2]: < 0.5 µM

**Q.** With COc1cc(C)nn1-c1ccc(C(=O)NCc2ccc(-n3c(-c4cccnc4N)nc4ccc(-c5ccccc5)nc43)cc2)cc1 [Compound I-2, N-(4-(2-(2-aminopyridin-3-yl)-5-phenyl-3H-imidazo[4,5-b]pyridin-3-yl)benzyl)-4-(5-methoxy-3-methyl-1H-pyrazol-1-yl)benzamide] as the compound, how does the IC50 [1] read?
**A.** 0.2 to 0.5 µM

**Q.** And the IC50 [2]?
**A.** < 0.5 µM

**Q.** What does the source list for Cc1cc(O)n(-c2cccc(C(=O)NCc3ccc(-n4c(-c5cccnc5N)nc5ccc(-c6ccccc6)nc54)cc3)c2)n1 [Compound I-3, N-(4-(2-(2-aminopyridin-3-yl)-5-phenyl-3H-imidazo[4,5-b]pyridin-3-yl)benzyl)-3-(5-hydroxy-3-methyl-1H-pyrazol-1-yl)benzamide]?
**A.** IC50 [1]: ≥ 0.5 µM; IC50 [2]: < 0.5 µM

**Q.** What does the source list for Cc1cc(O)n(-c2ccc(C(=O)NCc3ccc(-n4c(-c5cccnc5N)nc5ccc(-c6ccccc6)nc54)cc3)c(F)c2)n1 [Compound I-4, N-[[4-[2-(2-amino-3-pyridyl)-5-phenyl-imidazo[4,5-b]pyridin-3-yl]phenyl]methyl]-2-fluoro-4-(5-hydroxy-3-methyl-pyrazol-1-yl)benzamide]?
**A.** IC50 [1]: 0.05 to 0.2 µM; IC50 [2]: < 0.5 µM

**Q.** Cc1cc(O)n(-c2ccc(C(=O)NCc3ccc(-n4c(-c5cccnc5N)nc5ccc(-c6ccccc6)nc54)cc3)cc2F)n1 [Compound I-5, N-[[4-[2-(2-amino-3-pyridyl)-5-phenyl-imidazo[4,5-b]pyridin-3-yl]phenyl]methyl]-3-fluoro-4-(5-hydroxy-3-methyl-pyrazol-1-yl)benzamide] was tested. Which IC50 [1] did it give?
**A.** 0.05 to 0.2 µM

**Q.** And the IC50 [2]?
**A.** < 0.5 µM

**Q.** What does the source list for Nc1ncccc1-c1nc2ccc(-c3ccccc3)nc2n1-c1ccc(CNC(=O)c2ccc(-n3nc(C(F)(F)F)cc3O)cc2)cc1 [Compound I-6, N-(4-(2-(2-aminopyridin-3-yl)-5-phenyl-3H-imidazo[4,5-b]pyridin-3-yl)benzyl)-4-(5-hydroxy-3-(trifluoromethyl)-1H-pyrazol-1-yl)benzamide]?
**A.** IC50 [1]: 0.2 to 0.5 µM; IC50 [2]: < 0.5 µM

**Q.** Nc1ncccc1-c1nc2ccc(-c3ccccc3)nc2n1-c1ccc(CNC(=O)c2cccc(-n3nc(C(F)(F)F)cc3O)c2)cc1 [Compound I-7, N-(4-(2-(2-aminopyridin-3-yl)-5-phenyl-3H-imidazo[4,5-b]pyridin-3-yl)benzyl)-3-(5-hydroxy-3-(trifluoromethyl)-1H-pyrazol-1-yl)benzamide] was tested. Which IC50 [1] did it give?
**A.** ≥ 0.5 µM

**Q.** What about the IC50 [2] of the same compound?
**A.** < 0.5 µM

**Q.** For Nc1ncccc1-c1nc2ccc(-c3ccccc3)nc2n1-c1ccc(CNC(=O)c2ccc(-n3nc(-c4ccccc4)cc3O)cc2)cc1 [Compound I-8, N-(4-(2-(2-aminopyridin-3-yl)-5-phenyl-3H-imidazo[4,5-b]pyridin-3-yl)benzyl)-4-(5-hydroxy-3-phenyl-1H-pyrazol-1-yl)benzamide], which IC50 [1] is on record?
**A.** ≥ 0.5 µM

**Q.** What about the IC50 [2] of the same compound?
**A.** < 0.5 µM

**Q.** Which IC50 [1] does the source give for COC(=O)Cc1cc(O)n(-c2ccc(C(=O)NCc3ccc(-n4c(-c5cccnc5N)nc5ccc(-c6ccccc6)nc54)cc3)cc2)n1 [Compound I-9, Methyl 2-(1-(4-((4-(2-(2-aminopyridin-3-yl)-5-phenyl-3H-imidazo[4,5-b]pyridin-3-yl)benzyl)carbamoyl)phenyl)-5-hydroxy-1H-pyrazol-3-yl)acetate] here?
**A.** 0.05 to 0.2 µM

**Q.** And the IC50 [2]?
**A.** < 0.5 µM

**Q.** Which IC50 [1] does the source give for Nc1ncccc1-c1nc2ccc(-c3ccccc3)nc2n1-c1ccc(CNC(=O)c2ccc(-n3nc(CC(=O)O)cc3O)cc2)cc1 [Compound I-10, 2-(1-(4-((4-(2-(2-aminopyridin-3-yl)-5-phenyl-3H-imidazo[4,5-b]pyridin-3-yl)benzyl)carbamoyl)phenyl)-5-hydroxy-1H-pyrazol-3-yl)acetic acid] here?
**A.** < 0.05 µM

**Q.** And the IC50 [2]?
**A.** < 0.5 µM

**Q.** Which IC50 [1] does the source give for Nc1ncccc1-c1nc2ccc(-c3ccccc3)nc2n1-c1ccc(CNC(=O)c2ccc(-n3cc(C(=O)O)cn3)cc2)cc1 [Compound I-11, 1-(4-((4-(2-(2-aminopyridin-3-yl)-5-phenyl-3H-imidazo[4,5-b]pyridin-3-yl)benzyl)carbamoyl)phenyl)-1H-pyrazole-4-carboxylic acid] here?
**A.** < 0.05 µM

**Q.** And the IC50 [2]?
**A.** < 0.5 µM

**Q.** Which IC50 [1] does the source give for N#Cc1cnn(-c2ccc(C(=O)NCc3ccc(-n4c(-c5cccnc5N)nc5ccc(-c6ccccc6)nc54)cc3)cc2)c1 [Compound I-12, N-(4-(2-(2-aminopyridin-3-yl)-5-phenyl-3H-imidazo[4,5-b]pyridin-3-yl)benzyl)-4-(4-cyano-1H-pyrazol-1-yl)benzamide] here?
**A.** 0.2 to 0.5 µM

**Q.** What about the IC50 [2] of the same compound?
**A.** < 0.5 µM

**Q.** With Cc1cc(C#N)n(-c2ccc(C(=O)NCc3ccc(-n4c(-c5cccnc5N)nc5ccc(-c6ccccc6)nc54)cc3)cc2)n1 [Compound I-13, N-(4-(2-(2-aminopyridin-3-yl)-5-phenyl-3H-imidazo[4,5-b]pyridin-3-yl)benzyl)-4-(5-cyano-3-methyl-1H-pyrazol-1-yl)benzamide] as the compound, how does the IC50 [1] read?
**A.** 0.2 to 0.5 µM

**Q.** What about the IC50 [2] of the same compound?
**A.** < 0.5 µM

**Q.** N#Cc1cc(O)n(-c2ccc(C(=O)NCc3ccc(-n4c(-c5cccnc5N)nc5ccc(-c6ccccc6)nc54)cc3)cc2)n1 [Compound I-15, N-(4-(2-(2-aminopyridin-3-yl)-5-phenyl-3H-imidazo[4,5-b]pyridin-3-yl)benzyl)-4-(3-cyano-5-hydroxy-1H-pyrazol-1-yl)benzamide] was tested. Which IC50 [1] did it give?
**A.** 0.05 to 0.2 µM

**Q.** And the IC50 [2]?
**A.** < 0.5 µM

**Q.** For Cc1cc(C(N)=O)n(-c2ccc(C(=O)NCc3ccc(-n4c(-c5cccnc5N)nc5ccc(-c6ccccc6)nc54)cc3)cc2)n1 [Compound I-16, 1-(4-((4-(2-(2-aminopyridin-3-yl)-5-phenyl-3H-imidazo[4,5-b]pyridin-3-yl)benzyl)carbamoyl)phenyl)-3-methyl-1H-pyrazole-5-carboxamide], which IC50 [1] is on record?
**A.** 0.2 to 0.5 µM

**Q.** What about the IC50 [2] of the same compound?
**A.** < 0.5 µM

**Q.** How did the IC50 [1] turn out when Cc1cc(C(N)=O)nn1-c1ccc(C(=O)NCc2ccc(-n3c(-c4cccnc4N)nc4ccc(-c5ccccc5)nc43)cc2)cc1 [Compound I-17, 1-(4-((4-(2-(2-aminopyridin-3-yl)-5-phenyl-3H-imidazo[4,5-b]pyridin-3-yl)benzyl)carbamoyl)phenyl)-5-methyl-1H-pyrazole-3-carboxamide] was run?
**A.** 0.2 to 0.5 µM

**Q.** What about the IC50 [2] of the same compound?
**A.** < 0.5 µM

**Q.** Which IC50 [1] does the source give for Cc1cc(O)n(-c2ccc(C(=O)NCc3ccc(-n4c(-c5cccnc5N)nc5ccc(-c6ccccc6)nc54)cc3)cn2)n1 [Compound I-18, N-(4-(2-(2-aminopyridin-3-yl)-5-phenyl-3H-imidazo[4,5-b]pyridin-3-yl)benzyl)-6-(5-hydroxy-3-methyl-1H-pyrazol-1-yl)nicotinamide] here?
**A.** < 0.05 µM

**Q.** What about the IC50 [2] of the same compound?
**A.** < 0.5 µM

**Q.** Which IC50 [1] does the source give for Cc1cc(O)n(-c2ccc(C(=O)NCc3ccc(-n4c(-c5cccnc5N)nc5ccc(-c6ccccc6)nc54)cc3)nc2)n1 [Compound I-19, N-(4-(2-(2-aminopyridin-3-yl)-5-phenyl-3H-imidazo[4,5-b]pyridin-3-yl)benzyl)-5-(5-hydroxy-3-methyl-1H-pyrazol-1-yl)picolinamide] here?
**A.** 0.2 to 0.5 µM

**Q.** What about the IC50 [2] of the same compound?
**A.** < 0.5 µM
